In assay [1] the test system is lysozyme's vasodilatory effect in canine carotid artery preparation. The assay is described as follows: Lysozyme-induced vasodilation in canine carotid artery preparation (in-vitro). The procedure: Lysozyme produces vasodilation by intrinsically generating hydrogen peroxide (H2O2) that leads to activation of signaling pathways resulting in these hemodynamic effects (7).
Ethyl gallate is added to food as an antioxidant. It is the ethyl ester of gallic acid. Though found naturally in a variety of plant sources including walnuts (8), ethyl gallate is produced from gallic acid and ethanol (9). […] It is of note that if a substance could not inhibit lysozyme's effect in-vitro, then it would be worthless to pursue an in-vivo study.

The target of a further assay is T1, catalase (Homo sapiens, UniProt P04040).
T1 sequence (P04040 2-527 limits assumed): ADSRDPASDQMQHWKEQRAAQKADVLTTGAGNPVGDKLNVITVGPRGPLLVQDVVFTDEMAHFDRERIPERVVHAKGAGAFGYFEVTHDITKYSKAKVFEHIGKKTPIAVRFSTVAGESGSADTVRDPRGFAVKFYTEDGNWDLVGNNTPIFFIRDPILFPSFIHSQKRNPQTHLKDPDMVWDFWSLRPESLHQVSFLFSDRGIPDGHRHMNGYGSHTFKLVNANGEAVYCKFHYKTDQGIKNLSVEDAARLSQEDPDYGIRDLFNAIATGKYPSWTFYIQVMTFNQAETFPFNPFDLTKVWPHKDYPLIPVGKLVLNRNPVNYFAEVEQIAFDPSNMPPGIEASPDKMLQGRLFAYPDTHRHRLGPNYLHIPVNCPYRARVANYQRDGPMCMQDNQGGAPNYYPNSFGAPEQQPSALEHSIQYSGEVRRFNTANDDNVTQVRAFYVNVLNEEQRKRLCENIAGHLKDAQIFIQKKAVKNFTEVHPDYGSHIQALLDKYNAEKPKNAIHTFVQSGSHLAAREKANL
As to the kind of experiment: Conversion of catalase to compound I (wave-scan spectroscopy). The assay is classed as biochemical. From the text:
(§1) This generation appears to involve the mechanism described by Wentworth et al in which proteins can utilize water as a catalyst to generate H2O2 (12) Once formed by lysozyme, H2O2 then reacts with intrinsic catalase to form a species of catalase termed Compound I (2) Compound I then acts to generate cyclic-guanosine monophosphate which in turn causes vasodilation. […] These as well as other mechanisms may account for the efficacy of ethyl-gallate treatment in septic shock.

Assay [2] can be described thus: Hydrogen peroxide scavenging (Amplex Red assay, electrochemical techniques, glucosidase/glucose assay). It is filed as biochemical. Conditions: multiple methodologies.
From the text: as §1

The test system of another assay is non-septic dog. The assay is described as follows: Ethyl gallate infusion in non-septic dogs. The assay is classed as in vivo. From the text: The effect of ethyl-gallate treatment on hemodynamics in the non-septic animal was different from that found in the septic animal. In this protocol, 5 grams of ethyl-gallate were given in a similar manner over the course of the 5 hr treatment-phase of the study.
We have thus far studied 5 dogs in septic shock in which ethyl gallate was infused. We have compared the results obtained in this group with those found in septic animals (n=5) in which this treatment was not given. In addition, in preliminary experiments, we have looked at the effect of ethyl gallate infusion on hemodynamics in non-septic animals (n=3). In a time control non-septic group in which placebo (normal saline solution) was given, we have studied one animal.
The purpose of this study was to determine whether ethyl-gallate could reverse the fall in MAP that occurs in this sepsis model. Ethyl gallate was infused after MAP pressure fell approximately 30 to 40% from the baseline value in which this decline in MAP was not responsive to volume infusion to return Pwp to the baseline value (septic shock condition). This approach would be consistent with that observed in the clinical situation in which vasopressors, such as norepinephrine would be given at this interval. In the two sepsis groups, the animals were allocated in randomized fashion in which one received ethyl-gallate and volume infusion, while in the other, volume infusion alone was given. In the two non-sepsis groups, one received ethyl-gallate while the other received placebo treatment. In the non-sepsis groups, only maintenance volume for anesthesia and for placebo drugs was given over the course of the experiment.

Where [3] appears, read: non-septic dogs, 5 grams over 5 hr.
Where [4] appears, read: non-septic dogs, ethyl-gallate infusion.

For `CCOC(=O)c1cc(O)c(O)c(O)c1` [ethyl gallate], the “prevention of vasodilation caused by lysozyme” value in assay [1] (canine carotid artery and superior mesenteric arterial preparations) is reported as “prevented”. For the same compound, in assay [1] (canine carotid artery preparation, in-vitro), the “block of lysozyme's vasodilatory effect” value is “blocked”. Further, the “inhibition of degradation of catalase to compound I” value against catalase was “can inhibit”. For the same compound, in assay [2], the “scavenging of hydrogen peroxide” value is recorded as “can scavenge”. Also, in the assay with non-septic dog (non-septic dog, after infusion, FIG. 7), the heart rate effect result is reported as “slight tachycardia”. Moreover, in the assay with non-septic dog (setting [3]), the “SVR as compared with pre-treatment” value is listed as “decrease” and the “change in MAP” value is reported as “did not cause a change”. Moreover, in the assay on non-septic dog (setting [4]), the CO result was “appeared to increase”, the SV result is “appeared to increase” and the SW entry was “appeared to increase”.

Values taken from patent US20120277312A1, “Ethylgallate and Related Compounds as a Treatment for Sepsis and Septic Shock” (priority 2009, published 2012).
